In patent US8076487B2, “Pyridone derivative and herbicide” (Kumiai Chemical Industry Co., Ltd., priority 2006, dated 2011):

Key:
Type in all cases: in vivo
[1] = test system: velvetleaf (Abutilon theophrasti medicus); assay: Test Example 2: herbicidal effect by soil application to upland field; conditions: soil surface spray, upland field soil, 1,000 g active ingredient per hectare, 21st day after application
Method in brief: (§1)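 After sowing and covering, the soil received an even aqueous spray of wettable powder at a rate of 1,000 g active ingredient/ha (1,000 L/ha). Ratings of herbicidal effect followed a standard scale 21 days post-treatment, with plants held in a greenhouse.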

[2] = test system: slender amaranth (Amaranthus viridis L.); assay: as above; conditions: soil surface spray, upland field soil, 1,000 g active ingredient per hectare, 21st day after application
Method in brief: as §1

[3] = test system: barnyardgrass (Echinochloa crus-galli (L.) P. Beauv. var. crus-galli); assay: as above; conditions: soil surface spray, upland field soil, 1,000 g active ingredient per hectare, 21st day after application
Method in brief: as §1

[4] = test system: green foxtail (Setaria viridis (L.) P. Beauv.); assay: as above; conditions: soil surface spray, upland field soil, 1,000 g active ingredient per hectare, 21st day after application
Method in brief: as §1

[5] = test system: Japanese bulrush (Scirpus juncoides Roxb.); assay: Test Example 1: herbicidal effect by soil application to paddy field; conditions: paddy field soil application; active ingredient 1,000 g per 1 hectare; wettable powder added dropwise to water surface the day after sowing; examined on the 21st day after application
Method in brief: (§2)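 Under greenhouse conditions, seeds sown on puddled paddy soil in 100 cm2 pots under 3 cm of standing water received the test compound; injury was assessed with a standard scoring scheme three weeks (day 21) after treatment.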

[6] = test system: early watergrass (Echinochloa oryzicola Vasing); assay: as above; conditions: paddy field soil application; active ingredient 1,000 g per 1 hectare; wettable powder added dropwise to water surface the day after sowing; examined on the 21st day after application
Method in brief: as §2

[7] = test system: heartshape false pickerelweed (Monochoria vaginalis (Burm.f.) C.Presl); assay: as above; conditions: paddy field soil application; active ingredient 1,000 g per 1 hectare; wettable powder added dropwise to water surface the day after sowing; examined on the 21st day after application
Method in brief: as §2

[8] = test system: velvetleaf (Abutilon theophrasti medicus); assay: Test Example 3: herbicidal effect by application to upland field (foliage treatment); conditions: foliage treatment, 1,000 g active ingredient per 1 hectare, 14th day after application, greenhouse
Method in brief: (§3)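 Dose 1,000 g active ingredient/ha, sprayed as diluted wettable powder over entire plants two weeks after sowing in field soil. Kept in greenhouse; herbicidal effect graded on a standard scale on day 14.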

[9] = test system: slender amaranth (Amaranthus viridis L.); assay: as above; conditions: foliage treatment, 1,000 g active ingredient per 1 hectare, 14th day after application, greenhouse
Method in brief: as §3

[10] = test system: barnyardgrass (Echinochloa crus-galli (L.) P. Beauv. var. crus-galli); assay: as above; conditions: foliage treatment, 1,000 g active ingredient per 1 hectare, 14th day after application, greenhouse
Method in brief: as §3

[11] = test system: green foxtail (Setaria viridis (L.) P. Beauv.); assay: as above; conditions: foliage treatment, 1,000 g active ingredient per 1 hectare, 14th day after application, greenhouse
Method in brief: as §3

SMILES | herbicidal effect (index), Velvetleaf [1] | herbicidal effect (index), Slender Amaranth [2] | herbicidal effect (index), Barnyardgrass [3] | herbicidal effect (index), Green Foxtail [4] | herbicidal effect, Scirpus juncoides Roxb. [5] | herbicidal effect, Echinochloa oryzicola Vasing [6] | herbicidal effect, Monochoria vaginalis (Burm. f.) C. Presl [7] | herbicidal effect, Velvetleaf [8] | herbicidal effect, Slender Amaranth [9] | herbicidal effect, Barnyardgrass [10] | herbicidal effect, Green Foxtail [11]
CCC(C)n1c(C(F)(F)F)ccc(C(=O)c2cnn(C)c2O)c1=O (stereo not shown) [IV-8] | 5 (90% or more of herbicidal effect and crop phytotoxicity) | 5 (90% or more of herbicidal effect and crop phytotoxicity) | 5 (90% or more of herbicidal effect and crop phytotoxicity) | 5 (90% or more of herbicidal effect and crop phytotoxicity) | 5 (90% or more of herbicidal effect and crop phytotoxicity) | 5 (90% or more of herbicidal effect and crop phytotoxicity) | 5 (90% or more of herbicidal effect and crop phytotoxicity) | 5 (90% or more of herbicidal effect and crop phytotoxicity) | 5 (90% or more of herbicidal effect and crop phytotoxicity) | 5 (90% or more of herbicidal effect and crop phytotoxicity) | 4 (70 to less than 90% of herbicidal effect and crop phytotoxicity)
CCCS(=O)(=O)Oc1c(C(=O)c2ccc(C(F)(F)F)n(CC(F)(F)F)c2=O)cnn1C [IV-10] | 5 (90% or more of herbicidal effect and crop phytotoxicity) | 5 (90% or more of herbicidal effect and crop phytotoxicity) | 5 (90% or more of herbicidal effect and crop phytotoxicity) | 5 (90% or more of herbicidal effect and crop phytotoxicity) | 5 (90% or more of herbicidal effect and crop phytotoxicity) | 5 (90% or more of herbicidal effect and crop phytotoxicity) | 5 (90% or more of herbicidal effect and crop phytotoxicity) | 4 (70 to less than 90% of herbicidal effect and crop phytotoxicity) | 5 (90% or more of herbicidal effect and crop phytotoxicity) | 5 (90% or more of herbicidal effect and crop phytotoxicity) | 4 (70 to less than 90% of herbicidal effect and crop phytotoxicity)
C=CCn1c(C(F)(F)F)ccc(C(=O)c2cnn(C)c2O)c1=O [IV-11] | 5 (90% or more of herbicidal effect and crop phytotoxicity) | 5 (90% or more of herbicidal effect and crop phytotoxicity) | 5 (90% or more of herbicidal effect and crop phytotoxicity) | 4 (70 to less than 90% of herbicidal effect and crop phytotoxicity) | 5 (90% or more of herbicidal effect and crop phytotoxicity) | 5 (90% or more of herbicidal effect and crop phytotoxicity) | 5 (90% or more of herbicidal effect and crop phytotoxicity) | 5 (90% or more of herbicidal effect and crop phytotoxicity) | 5 (90% or more of herbicidal effect and crop phytotoxicity) | 5 (90% or more of herbicidal effect and crop phytotoxicity) | 5 (90% or more of herbicidal effect and crop phytotoxicity)
Cn1ncc(C(=O)c2ccc(C(F)(F)F)n(C3CC3)c2=O)c1O [IV-18] | 5 (90% or more of herbicidal effect and crop phytotoxicity) | 5 (90% or more of herbicidal effect and crop phytotoxicity) | 5 (90% or more of herbicidal effect and crop phytotoxicity) | 5 (90% or more of herbicidal effect and crop phytotoxicity) | 5 (90% or more of herbicidal effect and crop phytotoxicity) | 5 (90% or more of herbicidal effect and crop phytotoxicity) | 5 (90% or more of herbicidal effect and crop phytotoxicity) | 5 (90% or more of herbicidal effect and crop phytotoxicity) | 5 (90% or more of herbicidal effect and crop phytotoxicity) | 5 (90% or more of herbicidal effect and crop phytotoxicity) | 5 (90% or more of herbicidal effect and crop phytotoxicity)
CCCS(=O)(=O)Oc1c(C(=O)c2ccc(C(F)(F)F)n(C3CC3)c2=O)cnn1C [IV-19] | 5 (90% or more of herbicidal effect and crop phytotoxicity) | 5 (90% or more of herbicidal effect and crop phytotoxicity) | 5 (90% or more of herbicidal effect and crop phytotoxicity) | 5 (90% or more of herbicidal effect and crop phytotoxicity) | 5 (90% or more of herbicidal effect and crop phytotoxicity) | 5 (90% or more of herbicidal effect and crop phytotoxicity) | 5 (90% or more of herbicidal effect and crop phytotoxicity) | 5 (90% or more of herbicidal effect and crop phytotoxicity) | 5 (90% or more of herbicidal effect and crop phytotoxicity) | 5 (90% or more of herbicidal effect and crop phytotoxicity) | 5 (90% or more of herbicidal effect and crop phytotoxicity)
Cn1ncc(C(=O)c2ccc(C(F)(F)F)n(C3CCCC3)c2=O)c1O [IV-21] | 5 (90% or more of herbicidal effect and crop phytotoxicity) | 5 (90% or more of herbicidal effect and crop phytotoxicity) | 3 (50 to less than 70% of herbicidal effect and crop phytotoxicity) | 5 (90% or more of herbicidal effect and crop phytotoxicity) | 5 (90% or more of herbicidal effect and crop phytotoxicity) | 5 (90% or more of herbicidal effect and crop phytotoxicity) | 5 (90% or more of herbicidal effect and crop phytotoxicity) | 5 (90% or more of herbicidal effect and crop phytotoxicity) | 5 (90% or more of herbicidal effect and crop phytotoxicity) | 5 (90% or more of herbicidal effect and crop phytotoxicity) | 4 (70 to less than 90% of herbicidal effect and crop phytotoxicity)
Cn1ncc(C(=O)c2ccc(C(F)(F)F)n(CCC=C(Cl)Cl)c2=O)c1O [IV-30] | 5 (90% or more of herbicidal effect and crop phytotoxicity) | 5 (90% or more of herbicidal effect and crop phytotoxicity) | 5 (90% or more of herbicidal effect and crop phytotoxicity) | 3 (50 to less than 70% of herbicidal effect and crop phytotoxicity) | 5 (90% or more of herbicidal effect and crop phytotoxicity) | 5 (90% or more of herbicidal effect and crop phytotoxicity) | 5 (90% or more of herbicidal effect and crop phytotoxicity) | 5 (90% or more of herbicidal effect and crop phytotoxicity) | 5 (90% or more of herbicidal effect and crop phytotoxicity) | 5 (90% or more of herbicidal effect and crop phytotoxicity) | 5 (90% or more of herbicidal effect and crop phytotoxicity)
COCCn1c(C(F)(F)F)ccc(C(=O)c2cnn(C)c2O)c1=O [IV-33] | 5 (90% or more of herbicidal effect and crop phytotoxicity) | 5 (90% or more of herbicidal effect and crop phytotoxicity) | 5 (90% or more of herbicidal effect and crop phytotoxicity) | 5 (90% or more of herbicidal effect and crop phytotoxicity) | 5 (90% or more of herbicidal effect and crop phytotoxicity) | 5 (90% or more of herbicidal effect and crop phytotoxicity) | 5 (90% or more of herbicidal effect and crop phytotoxicity) | 5 (90% or more of herbicidal effect and crop phytotoxicity) | 5 (90% or more of herbicidal effect and crop phytotoxicity) | 5 (90% or more of herbicidal effect and crop phytotoxicity) | 5 (90% or more of herbicidal effect and crop phytotoxicity)
